In one assay the target is T1, human EP2 (PTGER2) (Homo sapiens, UniProt P43116).
T1 construct: Cayman Chemical (Human EP2 Reporter Assay Kit)
Description: EP2 antagonist assay (HEK-293 CNG membrane potential cAMP assay / 293T SEAP reporter assay, PGE2-stimulated). Type of assay: cell-based. The settings on record: EP2 antagonist activity; concentration for 50% inhibition of signal compared to DMSO. The method, boiled down:
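Two formats. In a CRE-SEAP reporter assay, reverse-transfected 293T cells received compound with PGE2 (13 nM final) for 6-8 h, then luminescence was read. In the ACTOne CNG format, HEK-293 cells were preincubated with compound for 15 min at RT, stimulated with 5 nM PGE2 for 30 min, and read by membrane-potential dye fluorescence. IC50 was taken versus DMSO.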

The next assay concerns the target T2, human EP4 (EP4R) (Homo sapiens, UniProt P35408).
T2 construct: Cayman Chemical (Human EP4 Reporter Assay Kit)
Nature of the assay: EP4 antagonist assay (HEK-293 CNG membrane potential cAMP assay / 293T SEAP reporter assay, PGE2-stimulated). The settings on record: EP4 antagonist activity; concentration for inhibition of signal compared to DMSO. The class given is cell-based.

A value given as a limit tells only on which side of the number the result lay.

T2 sequence (P35408 whole entry): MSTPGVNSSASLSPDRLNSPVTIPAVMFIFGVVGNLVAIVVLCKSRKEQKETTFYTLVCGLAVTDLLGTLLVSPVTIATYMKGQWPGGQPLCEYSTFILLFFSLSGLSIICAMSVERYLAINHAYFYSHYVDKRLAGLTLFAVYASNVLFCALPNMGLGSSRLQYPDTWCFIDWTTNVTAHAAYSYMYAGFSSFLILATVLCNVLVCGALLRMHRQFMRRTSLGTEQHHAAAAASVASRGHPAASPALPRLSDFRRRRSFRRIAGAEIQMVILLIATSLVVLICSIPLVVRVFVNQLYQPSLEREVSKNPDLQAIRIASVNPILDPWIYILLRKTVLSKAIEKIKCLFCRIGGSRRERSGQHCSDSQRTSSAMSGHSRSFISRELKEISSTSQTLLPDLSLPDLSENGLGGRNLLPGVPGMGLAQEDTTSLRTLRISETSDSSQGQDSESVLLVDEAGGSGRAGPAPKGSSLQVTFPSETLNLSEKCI
T1 sequence (P43116 whole entry): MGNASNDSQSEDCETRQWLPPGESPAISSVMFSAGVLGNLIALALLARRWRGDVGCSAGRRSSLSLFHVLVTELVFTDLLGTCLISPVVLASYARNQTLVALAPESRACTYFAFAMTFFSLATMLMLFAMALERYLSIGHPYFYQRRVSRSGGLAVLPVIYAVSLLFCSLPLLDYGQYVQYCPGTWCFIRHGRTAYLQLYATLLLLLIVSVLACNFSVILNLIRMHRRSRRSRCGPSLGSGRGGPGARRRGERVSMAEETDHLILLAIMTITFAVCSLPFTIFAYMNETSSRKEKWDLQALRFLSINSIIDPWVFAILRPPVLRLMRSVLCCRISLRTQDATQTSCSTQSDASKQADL

For `O=C(NC[C@H]1CC[C@H](C(=O)O)CC1)c1cc(-c2ccccc2)cc2cnn(Cc3cccc(C(F)(F)F)c3)c12` [Example 221, (1r,4r)-4-((5-phenyl-1-(3-(trifluoromethyl)benzyl)-1H-indazole-7-carboxamido)methyl)cyclohexane-1-carboxylic acid], the IC50 against human EP2 (PTGER2) was under 0.1 µM; against human EP4 (EP4R) it was at most 0.1 µM.
Turning to `C[C@H](NC(=O)c1cc(-c2ccccc2)cc2cnn(Cc3cccc(C(F)(F)F)c3)c12)[C@H]1CC[C@H](C(=O)O)CC1` [Example 223, (1S,4r)-4-((S)-1-(5-phenyl-1-(3-(trifluoromethyl)benzyl)-1H-indazole-7-carboxamido)ethyl)cyclohexane-1-carboxylic acid], the IC50 is at least 1 µM on human EP2 (PTGER2) and at most 0.1 µM on human EP4 (EP4R).
The corresponding values for `C[C@@H](NC(=O)c1cc(-c2ccccc2)cc2cnn(Cc3cccc(C(F)(F)F)c3)c12)[C@H]1CC[C@H](C(=O)O)CC1` [Example 224, (1R,4r)-4-((R)-1-(5-phenyl-1-(3-(trifluoromethyl)benzyl)-1H-indazole-7-carboxamido)ethyl)cyclohexane-1-carboxylic acid] are under 0.1 µM and at most 0.1 µM.

Source of the values: patent US20250179017A1 (GUANGDONG NEWOPP BIOPHARMACEUTICALS CO., LTD., priority 2022, published 2025).
